# How the values were obtained:
# [1] = system: IL-8 release, BEAS-2B cells; experiment: IL-8 release (ELISA) in IL-1β stimulated BEAS-2B cells; assay type: cell-based; conditions: Homo sapiens, 1 ng/ml IL-1β, read-out: EC50 for inhibition of the release of IL-8
# Method: The human airway epithelial cell line A549 may be employed to study resveratrol inhibition of the release of IL-8 (interleukin 8) and GM-CSF (granulocyte macrophage-colony stimulating factor) by a 1 ng/ml stimulation with IL-1β (interleukin 1β). A549 cells, BEAS-2B cells and 16HBE-16o^− cells were stimulated with 1 ng/ml levels of IL-1β in the presence of resveratrol.
# Cells, including the A549 cells, were cultured in Dulbecco's modified Eagle's medium (DMEM) 10% (v/v) fetal calf serum (FCS), 100 μg/ml penicillin and 100 μg/ml streptomycin. IL-8 release was measured by commercially available ELISA kit (R&D Systems).
# [2] = system: Asthmatic steroid naive children; experiment: Resveratrol substitution for glucocorticoids in asthmatic steroid naive children (Example 6); assay type: in vivo, human
# Method: Asthmatic steroid naive children with asthma disease severe enough to require chronic pulmonary steroid therapy are divided randomly and blindly into three groups. The duration of the study should be long, as pulmonary steroids for asthma are a chronic therapy, thus 1 to 2 years or more is optimal. The first group is treated with oral resveratrol, with the group subdivided randomly and blindly into four approximately equal subgroups that receive either 0 (placebo), 200, 2000, or 3000 mg/day resveratrol for about 12 to 24 months in oral doses of 0, 50, 500, or 750 mg administered 4 times daily for about 12 to 24 months. […]
# The methods of the following references may be used in the evaluation of asthmatic disease: Wohl et al. (2000) N. Engl. […] Patients are medically monitored for clinical symptoms of asthma throughout the study, including frequency and severity of acute asthma attacks. […] In addition exhaled nitric oxide (NO) and carbon monoxide (CO) levels may be measured at more frequent intervals, such as every other week. Forced expiratory volume (FEV) and forced inspiratory volume (FIV) are also evaluated to measure airway patency as a direct measure of clinical morbidity and to determine correlation the histopathologic and other indicators of clinical disease, such as exhaled NO. […]
# COPD patients = experiment: Pulmonary resveratrol clinical evaluation in COPD (Example 9); assay type: in vivo, human; conditions: inhaled, 4, 8 or 20 mg/day
# Method: Pulmonary administration of resveratrol for COPD may be evaluated by the method preceding in Example 8, using the inhaled doses specified in Example 4. Specifically the subgroups receive either 0 (placebo), 4, 8, or 20 mg/day resveratrol in inhaled doses of 0, 1, 2, or 5 mg administered 4 times daily for th duration of the study.
# [3] = system: Individuals at risk for ILD; experiment: Oral resveratrol for chemoprevention of ILD in individuals at risk (Example 11); assay type: in vivo, human; conditions: 2 to 5 years
# Method: Resveratrol is evaluated clinically for efficacy in chemoprevention of ILD in smokers. The study is generally patterned after the COPD chemoprevention study (Example 10) with modifications appropriate to the clinical and histopathologic evaluation of ILD, and the references listed in the preceding examples may be applied as appropriate. Individuals at risk with no disease or mild COPD are treated once or more per day with gelatin capsules containing resveratrol. A population of individuals at risk for a specific ILD, such as silicosis can be studied, or several such populations such as sand blasters (silicosis) and coal miners can be studied in parallel The different populations are subdivided into subpopulations: clinically and histopathologically disease free, clinically asymptomatic with histopathologic inflammation and mildly ILD symptomatic, meaning some fibrosis but no pulmonary impairment causing hypoxemia or acidosis. […] Patients are medically monitored for clinical symptoms of ILD throughout the study, including onset of symptoms and frequency and severity thereof. […] Forced expiratory volume (FEV) and forced inspiratory volume (FIV) are also evaluated to measure airway patency as a direct measure of clinical morbidity and to determine correlation the histopathologic and other indicators of clinical disease. […]
structure (smiles),measurement,setting,value
"Oc1ccc(/C=C/c2cc(O)cc(O)c2)cc1 [Resveratrol, 3,5,4′-trihydroxystilbene]",EC50,[1],111 ± 2.9 µM
same,efficacy as substitute for inhaled steroids in treating asthma,"[2]; oral or pulmonary resveratrol vs pulmonary budenoside, 12 to 24 months",effective as substitutes for antiinflammatory treatment with inhaled steroids in treating asthma
same,systemic side effects compared with inhaled glucocorticoids,"[2]; oral or pulmonary resveratrol, including suppression of growth",reduced systemic side effects
same,efficacy in treating COPD,COPD patients,effective for treating COPD
same,side effects,"[3]; oral, relative to those expected from steroid administration",without significant side effects
same,efficacy in chemoprevention of ILD,"[3]; oral, 200, 2000 or 3000 mg/day",effective for chemoprevention of ILD
